Results from patent US9868956B2, “Methods” (North Carolina State University, priority 2009, dated 2018).

Experiments:
[1] = Labeling of myoglobin-his6 bearing 2 with azido-probes via copper catalysed [3+2] cycloaddition; details: biotin azide 5 or By3 azide 6; CuSO4/ascorbate/ligand, pH 8.3
Procedure: In control experiments myoglobin-his6 bearing 3 at position 4 was treated identically. After 18 h, the purified labeling reactions were probed (FIG. 2A).
Quantification of the ratio of biotin or By3 to protein in purified samples provides independent confirmation of the labeling efficiency (Supplementary Methods).
Protein was re-buffered to 100 mM sodium phosphate buffer (pH 8.3) and concentrated to 2.5 mg/mL. 100 mM stock solutions of CuSO4, sulfonated bathophenanthroline sodium salt (GFS Chemicals) and sodium ascorbate in water were prepared, pre-mixed and incubated at room temperature for 5 min. Myoglobin containing 2 (13.5 nmol) was reacted for 15 minutes at 25° C., then 4° C. for 18 h with the biotin azide (Quanta Biodesign) 5 or the By3 azide (Primetech LTD) 6 (50 equivalents, 10 mM in DMSO) and CuSO4 (1 mM)/ascorbate (1 mM)/ligand (2 mM)^20. After 18 h, the solutions were diluted to 1 mL and loaded onto an Illustra™ NAP-10 column. Proteins were eluted into 1.5 mL of 20 mM NH4HCO3, dialyzed overnight with 20 mM NH4HCO3, loaded onto PD10 and eluted into 3.5 mL 20 mM NH4HCO3. […] Protein concentration of the labeled samples were measured by BCA Protein Assay (Thermo Scientific). The Biotin Quantitation Kit (Thermo Scientific) was used to quantify biotin-conjugated protein in labeled samples, and the By3 absorbance at 550 nm was used to quantify purified By3-labeled protein. […]

MbPyIRS/tRNACUA pair = target: T1, MbPyIRS/tRNACUA pair (Methanosarcina barkeri, UniProt Q6WRH6); assay: Expression of myoglobin-his6 (amber codon at position 4) in E. coli with the MbPyIRS/tRNACUA pair in the presence of the amino acid; format: cell-based; details: for yield of full-length myoglobin-his6 purified by Ni-NTA chromatography: E. coli with pBKPylS and pMyo4TAGPylT-his6, amino acid added to log phase cells (1 mM for 1 and 2); for incorporation by the MbPyIRS/tRNACUA pair (myoglobin-his6 purified by Ni-NTA chromatography): E. coli, 1 mM amino acid
T1 construct: expressed in transfected cells; host or cells: E. coli DH10B transformed with pBKPylS and pMyo4TAGPylT-his6
Procedure: To investigate whether 1 and 2 are substrates for the MbPyIRS/tRNACUA pair, we transformed E. coli with pBKPylS10 (which encodes MbPyIRS) and pMyo4TAGPylT-his610 (which encodes MbtRNACUA and a C-terminally hexahistidine tagged myoglobin gene with an amber codon at position 4). We added 1 or 2 (1 mM) to log phase cells and induced myoglobin-his6 expression. […] This may reflect the greater flexibility of the carbamate linkage. The yield of protein containing 2 was not improved by efforts to evolve the enzyme but was increased 5-fold by increasing the concentration of 2 7.5 fold (Supplementary FIG. 2A).
To investigate if the carbamate linkage provides a general route to the incorporation of other functional groups suitable for bioconjugation, we synthesized a simple aliphatic azide 3 (2 steps, 80% yield, Supplementary Scheme 1 and Supplementary Methods).
To express sperm whale myoglobin with an incorporated unnatural amino acid, we transformed E. coli DH10B cells with pBKPylS and pMyo4TAGPylT-his6. Cells were recovered in 1 mL of LB media for 1 h at 37° C., before incubation (16 h, 37° C., 250 r.p.m.) in 100 mL of LB containing kanamycin (50 μg/mL) and tetracycline (25 μg/mL). 20 mL of this overnight culture was used to inoculate 500 mL of LB supplemented with kanamycin (25 μg/mL), tetracycline (12 μg/mL) and 2 mM of 2. Cells were grown (37° C., 250 r.p.m.), and protein expression was induced at OD600-0.6, by addition of arabinose to a final concentration of 0.2%. After 3 h of induction, cells were harvested. Proteins were extracted by sonication at 4° C. The extract was clarified by centrifugation (20 min, 21,000 g, 4° C.), 300 μL of Ni^2+-NTA beads (Qiagen) were added to the extract, the mixture was incubated with agitation for 1 h at 4° C. Beads were collected by centrifugation (10 min, 1000 g). The beads were twice resuspended in 50 mL wash buffer and spun down at 1000 g. Subsequently, the beads were resuspended in 20 ml of wash buffer and transferred to a column. Protein was eluted in 1 ml of wash buffer supplemented with 200 mM imidazole and was then re-buffered to 20 mM ammonium bicarbonate using a sephadex G25 column. The purified proteins were analysed by 4-12% SDS-PAGE.
E. coli DH10B cells containing pBKPylS and pMyo4TAGPylT were inoculated into LB containing kanamycin (50 μg/mL) and tetracycline (25 μg/mL). The cells were incubated with shaking overnight at 37° C. 200 μL of cells were inoculated into each of 3 mL LB aliquots containing kanamycin (25 μg/mL) and tetracycline (12 μg/mL) and supplemented with different concentrations (7.5 mM, 5 mM, 2.5 mM, 1 mM, 0.75 mM, 0.5 mM, 0.25 mM, 0.1 mM, 0 mM) of 2. After 3 h of incubation with shaking at 37° C., protein expression was induced by the addition of 30 μL of 20% arabinose. After 12 h of expression, cell were collected by centrifugation (16000 g, 5 min) of 1 mL of cell suspension. The cells were resuspended in 100 μL of NuPAGE SDS Sample buffer supplemented with 10% f3-mercaptoethanol, heated at 80° C. for 10 min and centrifuged at 16000 g for 10 min. The crude cell lysate was analysed by 4-12% SDS-PAGE. Western blots were performed with antibodies against the hexahistidine tag (Invitrogen AntiHis monoclonal Mouse antibody).

T1 sequence (Q6WRH6 whole entry): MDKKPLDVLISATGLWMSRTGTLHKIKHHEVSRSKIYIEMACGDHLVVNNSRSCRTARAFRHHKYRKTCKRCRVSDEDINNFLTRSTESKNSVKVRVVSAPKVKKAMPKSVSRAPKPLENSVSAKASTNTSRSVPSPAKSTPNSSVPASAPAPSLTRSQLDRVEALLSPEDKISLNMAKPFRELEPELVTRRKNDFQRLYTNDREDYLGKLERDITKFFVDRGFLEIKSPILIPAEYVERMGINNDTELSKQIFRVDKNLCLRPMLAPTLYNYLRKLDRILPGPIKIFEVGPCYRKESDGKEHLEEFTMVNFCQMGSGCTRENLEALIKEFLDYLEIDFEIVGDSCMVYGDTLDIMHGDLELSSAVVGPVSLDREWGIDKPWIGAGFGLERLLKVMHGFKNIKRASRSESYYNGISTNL

C#CCOC(=O)NCCCC[C@H](N)C(=O)O.O=C(O)C(F)(F)F [compound 2, (S)-2-amino-6-((prop-2-ynyloxy)carbonylamino)hexanoic acid TFA salt]
labeling of genetically encoded alkyne with azides that introduce biotin or fluorescent groups [1]: specifically and efficiently labeled | yield of full-length myoglobin-his6 purified by Ni-NTA chromatography (MbPyIRS/tRNACUA pair): 2 mg/L | incorporation by the MbPyIRS/tRNACUA pair (myoglobin-his6 purified by Ni-NTA chromatography) (MbPyIRS/tRNACUA pair): incorporated | increase in yield of protein containing 2 (MbPyIRS/tRNACUA pair; on increasing the concentration of 2 7.5 fold, Western blot against his-6 in cell lysates): 5 fold

O=C(O)C(F)(F)F.[N-]=[N+]=NCCOC(=O)NCCCC[C@H](N)C(=O)O [compound 3, (S)-2-amino-6-((2-azidoethoxy)carbonylamino)hexanoic acid TFA salt]
yield of full-length myoglobin-his6 purified by Ni-NTA chromatography (MbPyIRS/tRNACUA pair): 3 mg/L

C#CCCC(=O)NCCCC[C@H](N)C(=O)O.O=C(O)C(F)(F)F [compound 1, (S)-2-amino-6-pent-4-ynamidohexanoic acid TFA salt]
incorporation by the MbPyIRS/tRNACUA pair (myoglobin-his6 purified by Ni-NTA chromatography) (MbPyIRS/tRNACUA pair): only background levels
